In patent US20200215537A1, “ULTRASENSITIVE CANTILEVER” (3P SENSE LIMITED, priority 2017, published 2020):
Read-outs that look alike come from different tables or passages of the source.

How the values were obtained:
[1] = solution; cited from earlier work
[2] = tested on: vancomycin susceptible receptor (VSR); assay: Cantilever binding assay, vancomycin against VSR coated cantilevers
Method: (§1) In the case of preparation of unpassivated cantilever, SAMs of D-VSR, L-VSR and inert PEG molecules were diluted to a concentration of 1 μM in pure ethanol. The diluted SAMs were individually injected into glass capillary tubes (King Precision Glass, Claremont, Calif., USA) which were arranged on the functionalization stage. The cantilevers were then functionalized by incubating them with individual SAMS inside the glass capillaries for 20 min. Care was taken to ensure that the hinge region was entirely covered with the SAM solution in order to ensure mechanical connectivity between the transduction arrays and hinge region.
The finding that a signal response is detectable even when the assembling of array networks is confined to only 30 μm of the geometrical width of the region covered while the corresponding geometeric length is fixed at 500 μm of the cantilever, prompted us to examine whether changing the dimensions of the cantilever itself whilst maintaining the mechanical connectivity of surface receptors has any impact on the signal sensitivity and reproducibility. This is because the dimensions of a sensing element can greatly impact on the signal response in several ways (1) the threshold size of the ligand capture cross-section area that is able to generate mechanical signaling decreases when the size of the sensing element is reduced, (2) the biomechanical force impacting on the sensing element is more pronounced for a narrow sensing element, and (3) the narrower the sensing element, the less rigid it is and the more responsive it will be to molecular forces. Further, continuous mechanical connectivity can be effected by the edging effects at the perimeter of the sensor itself and its impact would be more pronounced for narrower sensing elements (FIG. 1b). The effect on signal response by reducing the conventional cantilever width from 100 μm to 70 μm whilst keeping the length and thickness at 500 μm and 1 μm, respectively, was examined. These dimensions were chosen because they enable the narrowed cantilever to be used with standard instruments without the need for redesigning equipment. In addition, at this width the cantilever is less affected by the capillary forces and static charges which may render careful alignment of the scanning laser at the free-end more difficult. For this experiment vancomycin (Van) as the reporter molecule and vancomycin-susceptible receptor (or VSR)^21 as its target were used. Van is the Food and Drug Administration (FDA)-approved drug of last resort for clinical treatment of MRSA and clostridium difficile infections^38,39. This particular system was chosen because it gives relatively large signals and it has been previously shown that the quantitative Van-VSR binding constants can be measured^21 and so it can be used to redefine the limit of recognition of biologically relevant systems. The entire surface of the cantilever including the hinge region was coated with VSR using glass capillares (See Cantilever functionalization with surface target molecules). Artefacts that produce non-specific signals were overcome by performing differential measurements where the reference mercaptoundecyl tri(ethylene glycol) thiol (PEG)-coated cantilever signals was subtracted from the VSR signals. […] The signal response obtained from all three cantilevers was highly consistent and almost identical over a 60 min time period. Moreover, the compressive signal response was relatively high averaging −400±30 pN with a signal-to-noise ratio (SNR) of 7. […] Next, the impact of different concentrations on signal response initially fixed at 20, 50, 500 and 1000 nM (FIG. 4b-d) was examined. […] The thermodynamic pseudo-equilibrium signal response was attained at 60 and 50 min for 20 nM and 50 nM Van, respectively. In contrast, the thermodynamic pseudo-equilibrium was achieved within 6 min or less for Van concentrations ≥500 nM. […]

[3] = SPR; cited from earlier work
[4] = tested on: L-VSR; assay: Cantilever binding assay against L-VSR coated cantilevers; settings: for biomechanical force / signal response: 50 μM ligand, sodium phosphate buffer pH 7.4, L-VSR coated cantilevers; for signal response over concentration range: all concentrations of ligand
Method: as §1
(§2) Finally, learning from enantiomeric molecules, although identical in structure and are mirror images of one another with different physical characteristics, could be used to test the impact of the regulatory connectivity networks on the biomechanical forces involved in molecular interactions. So it was inferred that in chiral species the level of complementarity between a drug and its target will lead to different assemblies across the mirror images of the surface receptors and this can be reflected in the distinguishable biomechanical forces. To test this concept the interaction of the D-VSR and its corresponding mirror image (L-VSR) (see, Cantilever functionalization with surface target molecules) with the antibiotic drug vancomycin was studied. D-VSR is an enantiomer predominantly found in bacterial cell walls whereas L-VSR is not produced by bacteria. […] The mechanical response obtained using a high concentration of Van (50 μM) against 100 μm wide parallel transduction arrays of D-VSR and L-VSR was initially tested. […] In contrast the signal response of Van against L-VSR was very small ˜−200 pN, approximately 20 times smaller than with D-VSR (FIG. 5a). The experiment was repeated using a wide range of different concentrations of Van (0.1-1000 μM) on at least four separate chips.
(§3) Functionalized cantilever chips were mounted in a sealed liquid cell environment and a time-multiplexed optical laser readout system (Scentris, Veeco Instruments Inc., Santa Barbara, Calif., USA) was used to measure the cantilever bending. The laser alignment was considered successful if the difference between the minimum and maximum deflection was <5% when the cell temperature was raised by 1° C. for 10 min followed by 10 min cooling to room temperature. […]
(§4) The biomechanical force data from ligand-receptor interactions were measured as follows: sodium phosphate buffer (pH 7.4, 0.1 M) was injected into the cell for either 3 or 10 min to establish a baseline. […] Cantilever bending signals were measured in a fixed temperature-controlled hood at 25° C. using a liquid flow rate of 30-180 μL min^−1. […]

[5] = tested on: D-VSR; assay: Cantilever binding assay against D-VSR coated cantilevers
Method: as §1, §2, §3, §4

CN[C@H](CC(C)C)C(=O)N[C@H]1C(=O)N[C@@H](CC(N)=O)C(=O)N[C@H]2C(=O)N[C@H]3C(=O)N[C@H](C(=O)N[C@H](C(=O)O)c4cc(O)cc(O)c4-c4cc3ccc4O)[C@H](O)c3ccc(c(Cl)c3)Oc3cc2cc(c3O[C@@H]2O[C@H](CO)[C@@H](O)[C@H](O)[C@H]2O[C@H]2C[C@](C)(N)[C@H](O)[C@H](C)O2)Oc2ccc(cc2Cl)[C@H]1O [Van, vancomycin]
Kd [1]: 700 nM
signal response ([2]; 500 pM Van, 100 μm wide cantilevers): no signal response
mechanical force / signal response ([2]; 500 pM Van, pH 7.4, small sized (70 μm wide) cantilever, three separate cantilevers): −400±30 pN
Van concentration at which signal response reached a plateau ([2]; 0.0005 μM to 250 μM Van, narrow cantilevers): 10 µM
time to thermodynamic pseudo-equilibrium signal response ([2]; 20 nM Van): 60 min
biomechanical force response ([2]; 20 nM Van, small sized cantilever): ~−500 pN
time to thermodynamic pseudo-equilibrium signal response ([2]; 50 nM Van): 50 min
biomechanical force response ([2]; 50 nM Van, small sized cantilever): ~−1500 pN
biomechanical force response ([2]; 500 nM Van, small sized cantilever): ~−3000 pN
mechanical force response ([2]; 1 μM Van, 3 separate small sized cantilevers): ~−5000±400 pN
signal response ([2]; 1 μM Van, conventional 100 μm wide cantilevers): −120 nm
Kd ([2]; 100 μm and 70 μm cantilevers, read-out: Kd (surface thermodynamic equilibrium dissociation constant, equation (1))): 500 ± 100 nM
time to thermodynamic pseudo-equilibrium ([2]; Van concentrations ≥500 nM): ≤ 6 min
reversibility of signal response ([2]; all concentrations of Van): reversible
mechanical forces arising from [Van] against VSR (plot) ([2]; large sized cantilever): ~−3800 pN
mechanical forces arising from [Van] against VSR (plot) ([2]; small sized cantilever): ~−6900 pN
Kd [3]: 1000 ± 300 nM
biomechanical force / signal response [4]: ~−200 pN
signal response over concentration range [4]: only a small signal response
ratio of signal response D-VSR versus L-VSR ([5]; 50 μM ligand): approximately 20 times
ligand concentration at which plateau was reached ([5]; 0.1-1000 μM Van): 50 µM

ristocetin
biomechanical force / signal response [4]: ~−2000 pN
signal response over concentration range [4]: remained small compared to D-VSR
ratio of signal response D-VSR versus L-VSR ([5]; 50 μM ligand): approximately 3 times
biomechanical force / mechanical response ([5]; 50 μM ligand, sodium phosphate buffer pH 7.4, D-VSR coated 100 μm wide cantilevers): ~−5000 pN
